Where “and” joins values, the source holds several entries; their conditions need not be identical. Equal entries are not always repeated. Where two headings read alike, the source gives them in different places.
Assays:
[1] = Stability in rat hepatocytes; type: in vitro ADME
[2] = tested on: PfAlaRS cKD P. falciparum line; test: microbe, parasite or virus in culture; type: cell-based, Plasmodium falciparum; settings: for Growth: PfAlaRS K/D; for IC50: PfAlaRS line, individual repeats
From the text: (§1) Conditional knockdown (cKD) P. falciparum lines were generated for the cytosolic AsnRS (PF3D7_0211800), cytosolic AlaRS (PF3D7_1367700), cytosolic GlyRS (GlyRS; PF3D7_1420400), PfNT4 (PF3D7_0103200), P. falciparum glutamate dehydrogenase 3 (GDH3; PF3D7_0802000), and P. falciparum carbonic anhydrase (CA, PF3D7_1140000) by fusing the coding sequences and non-coding RNA aptamer sequences in the 3’-UTR, permitting translation regulation using the TetR-DOZI system[59],[60]. Gene editing was achieved by CRISPR/SpCas9 using the linear pSN054 vector that contains cloning sites for the left homology region (LHR) and the right homology region (RHR) as well a target-specific guide RNA under control of the T7 promoter. Cloning into the pSN054 donor vector was carried out following described procedures[59],[60]. The vector includes V5-2xHA epitope tags, a 10x tandem array of TetR aptamers upstream of an Hsp86 3’UTR, and a multicistronic cassette for expression of TetR-DOZI (translation regulation), blasticidin S-deaminase (selection marker) and a Renilla luciferase (RLuc) reporter. All primer and synthetic fragment sequences that were generated using the BioXP™ system and IDT gBlocks™ are included in Supplementary Table 9. The final constructs were sequence-verified and further confirmed by restriction digests.
(§2) Transfection into Cas9- and T7 RNA polymerase-expressing NF54 parasites was carried out by pre-loading red blood cells (RBCs) with the donor vector[61]. […] Cultures were monitored by Giemsa smears and RLuc measurements.
(§3) DMSO- and dihydroartemisinin-treatment (0.5 µM) served as reference controls.

[3] = tested on: PfAsnRS cKD P. falciparum line; test: microbe, parasite or virus in culture; type: cell-based, Plasmodium falciparum; settings: for growth after 72 h exposure, normalised to no drug: PfAsnRS K/D, replicates
From the text: as §1, §2, §3

[4] = tested on: PfCA cKD P. falciparum line; test: microbe, parasite or virus in culture; type: cell-based, Plasmodium falciparum; settings: PfCA K/D
From the text: as §1, §2, §3

With `Nc1ncnc2cc(-c3cccc(S(N)(=O)=O)c3)sc12` [OSM-S-106] the “stability during incubation with rat hepatocytes” value [1] was “stable”, the Growth ([2]; 3.125 nM OSM-S-106, 500 nM aTc) was 106.745 and 98.2451 and 120.926 and the Growth ([2]; 6.25 nM OSM-S-106, 500 nM aTc) was 90.3733 and 84.6837 and 109.578. The Growth ([2]; 12.5 nM OSM-S-106, 500 nM aTc) was 88.5694 and 88.7266 and 97.0041, the Growth ([2]; 25 nM OSM-S-106, 500 nM aTc) was 83.1875 and 95.5017 and 98.3659 and the Growth ([2]; 50 nM OSM-S-106, 500 nM aTc) was 55.6885 and 91.3478 and 80.2088. It also gave a Growth ([2]; 200 nM OSM-S-106, 500 nM aTc) of 76.3648, a Growth ([2]; 200 nM OSM-S-106, […] aTc) of 67.5946 and an IC50 ([2]; 1 nM, […] aTc or no aTc) of 46.2 nM. The IC50 ([2]; 500 nM aTc) was 99.7 nM, the IC50 ([2]; Plasmodium falciparum, 1 nM, […] aTc or no aTc) was 56.8 nM and the IC50 ([2]; Plasmodium falciparum, 500 nM aTc) was 78.4 nM. The “growth after 72 h exposure, normalised to no drug” value (“growth … normalised to no drug” below) ([3]; 1 nM aTc, 3.125 nM) was 100 (2×) and 98.2196, the “growth … normalised to no drug” value ([3]; 1 nM aTc, 6.25 nM) was 101.298 and 95.7154 and 83.7406 and the “growth … normalised to no drug” value ([3]; 1 nM aTc, 12.5 nM) was 113.486 and 107.859 and 50.8034. The “growth … normalised to no drug” value ([3]; 1 nM aTc, 25 nM) was 72.3501 and 87.3666 and 36.7561, the “growth … normalised to no drug” value ([3]; 1 nM aTc, 50 nM) was 8.286 and 14.406 and 55.7128 and the “growth … normalised to no drug” value ([3]; 1 nM aTc, 100 nM) was 12.9721 and 14.646 and 33.4758. For the same compound, the “growth … normalised to no drug” value ([3]; 1 nM aTc, 200 nM) was 2.187 and 4.184 and 3.619, the “growth … normalised to no drug” value ([3]; 1 nM aTc, 400 nM) was 0.0118 and 0.3256 and 1.407 and the “growth … normalised to no drug” value ([3]; 1 nM aTc, 800 nM) was 0 (2×) and 0.3116. For the same compound, the “growth … normalised to no drug” value ([3]; 1 nM aTc, […]) was 95.5045, the “growth … normalised to no drug” value ([3]; 500 nM aTc, 3.125 nM) was 100 (2×) and 130.484 and the “growth … normalised to no drug” value ([3]; 500 nM aTc, 6.25 nM) was 102.095 and 95.7689 and 98.7064. The “growth … normalised to no drug” value ([3]; 500 nM aTc, 12.5 nM) was 106.159 and 101.462 and 104.967, the “growth … normalised to no drug” value ([3]; 500 nM aTc, 25 nM) was 108.223 and 97.6665 and 110.496 and the “growth … normalised to no drug” value ([3]; 500 nM aTc, 50 nM) was 109.874 and 96.9998 and 112.12. The “growth … normalised to no drug” value ([3]; 500 nM aTc, 100 nM) was 74.5373 and 61.9971 and 57.4067, the “growth … normalised to no drug” value ([3]; 500 nM aTc, 200 nM) was 13.0647 and 13.1882 and 56.7167 and the “growth … normalised to no drug” value ([3]; 500 nM aTc, 400 nM) was 1.083 and 1.38 and 11.7035. The “growth … normalised to no drug” value ([3]; 500 nM aTc, 800 nM) was 0 (2×) and 1.573, the “growth … normalised to no drug” value ([3]; 500 nM aTc, […]) was 123.179 and the IC50 ([3]; PfAsnRS line, 500 nM aTc, individual repeats) was 116 nM and 175 nM. For the same compound, the IC50 ([3]; Plasmodium falciparum, PfAsnRS line, 500 nM aTc, individual repeats) was 123 nM, the IC50 ([3]; Plasmodium falciparum, read-out: Mean IC50 with 500 nM aTc, PfAsnRS line, 500 nM aTc) was 140 nM and the IC50 ([3]; Plasmodium falciparum, read-out: Mean IC50 with low (1 or […])/ no aTc, PfAsnRS knockdown, low aTc) was 26 nM. For the same compound, the Growth ([4]; 3.125 nM OSM-S-106, 500 nM aTc) was 126.787 and 158.672 and 147.974, the Growth ([4]; 3.125 nM OSM-S-106, no aTc) was 126.423 and 113.544 and 101.394 and the Growth ([4]; 6.25 nM OSM-S-106, 500 nM aTc) was 92.3654 and 131.4 and 126.99. The Growth ([4]; 6.25 nM OSM-S-106, no aTc) was 110.949 and 103.392 and 134.667, the Growth ([4]; 12.5 nM OSM-S-106, 500 nM aTc) was 103.771 and 150.344 and 136.72 and the Growth ([4]; 12.5 nM OSM-S-106, no aTc) was 107.898 and 113.66 and 101.587. For the same compound, the Growth ([4]; 25 nM OSM-S-106, 500 nM aTc) was 66.7109 and 104.005 and 106.363 and the Growth ([4]; 25 nM OSM-S-106, no aTc) was 55.2693 and 67.1039 and 67.9395.

Reference: PMC10831071, “Reaction hijacking inhibition of Plasmodium falciparum asparagine tRNA synthetase” (Nature Communications, 2024)
